Source: patent US20170114030A1, “COMPOSITION WITH HIGH CONTENT OF CYCLIC DIPEPTIDE” (SUNTORY HOLDINGS LIMITED, priority 2014, published 2017)

System: plasma active GLP-1
Assay: In vivo plasma active GLP-1 level-increasing action after oral administration
Set-up: species or system mice
Conditions: 10 mg/kg orally; for Plasma active GLP-1 level (relative value to control group as 100), Average value: male C57/BL6J mice, blood after 30 minutes, 0.5% CMC-Na group = 100; for Significant difference (p < 0.05) vs control group, plasma active GLP-1 level: mice, 30 minutes, Student's t-test
Method: In the Test Examples below, data were represented as average value±standard error. In Test Examples 1, 2, and 3, a Student's t-test was used for a statistical test, and in other Test Examples, one-way ANOVA was carried out for dispersion analysis followed by a multiple comparison test by using a Dunnet's test. […] All of these analyses were carried out by using an SPSS for Windows release 17.0 (manufactured by SPSS Inc.).
Among the cyclic dipeptides, cyclic dipeptides for which an in vitro GLP-1 secretion-accelerating action was found and highly lipid-soluble cyclic dipeptides were used in the following experiment. Seven-week-old male C57/BL6J mice were purchased from CLEA Japan, Inc. for use, and they were subjected to an experiment after 1 week of a habituation period. Each animal was grown in an animal room with an air conditioning system (temperature: 23.5±1.0° C., humidity: 55±10 RH %, air ventilation: 12 to 15 times/hour, illumination: from 7:00 to 19:00/day).
After the habituation period, the mice were subjected to 5.5 hours of food deprivation and 2 hours of water deprivation. Thereafter, a cyclic dipeptide dissolved or suspended in a 0.5% CMC-Na aqueous solution in 10 mg/kg was orally administered to each mouse forcibly. After 30 minutes, the blood was collected from the abdominal vena cava under anesthesia, and 1 μL of heparin sodium and 1 μL of 10 mM Sitagliptin phosphate were added to each collected blood, which was then subjected to centrifugation at 8000 rpm for 10 minutes to recover the plasma, and the plasma active GLP-1 level was measured by using the ELISA kit. In the analysis, the active GLP-1 level for a group administered with 0.5% CMC-Na aqueous solution was defined as 100, and relative values thereto were used.
In each Table, cyclic dipeptides for which an in vivo plasma active GLP-1 level-increasing action was found and was not found are listed.

## CC(C)C1NC(=O)C(C(C)C)NC1=O (stereo not shown) [compound 11]
Experiment 4
  Plasma active GLP-1 level (relative value to control group as 100), Average value: 100
  Significant difference (p < 0.05) vs control group, plasma active GLP-1 level: No

## CCC(C)C1NC(=O)C(C(C)CC)NC1=O (stereo not shown) [compound 14]
Experiment 4
  Plasma active GLP-1 level (relative value to control group as 100), Average value: 105
  Significant difference (p < 0.05) vs control group, plasma active GLP-1 level: No

## CC(C)CC1NC(=O)C(CC(C)C)NC1=O (stereo not shown) [compound 15]
Experiment 4
  Plasma active GLP-1 level (relative value to control group as 100), Average value: 95
  Significant difference (p < 0.05) vs control group, plasma active GLP-1 level: No

## CC(C)CC1NC(=O)C(Cc2ccccc2)NC1=O (stereo not shown) [compound 16]
Experiment 4
  Plasma active GLP-1 level (relative value to control group as 100), Average value: 105
  Significant difference (p < 0.05) vs control group, plasma active GLP-1 level: No

## O=C1NC(Cc2ccccc2)C(=O)NC1Cc1ccccc1 (stereo not shown) [compound 17]
Experiment 3
  Plasma active GLP-1 level (relative value to control group as 100), Average value: 203
  Significant difference (p < 0.05) vs control group, plasma active GLP-1 level: Yes

## O=C1NC(Cc2c[nH]c3ccccc23)C(=O)NC1Cc1ccc(O)cc1 (stereo not shown) [compound 22]
Experiment 3
  Plasma active GLP-1 level (relative value to control group as 100), Average value: 203
  Significant difference (p < 0.05) vs control group, plasma active GLP-1 level: Yes

## O=C1NC(Cc2ccc(O)cc2)C(=O)NC1CO (stereo not shown) [compound 29]
Experiment 4
  Plasma active GLP-1 level (relative value to control group as 100), Average value: 95
  Significant difference (p < 0.05) vs control group, plasma active GLP-1 level: No

## O=C1NC(Cc2ccc(O)cc2)C(=O)N2CCCC12 (stereo not shown) [compound 30]
Experiment 4
  Plasma active GLP-1 level (relative value to control group as 100), Average value: 95
  Significant difference (p < 0.05) vs control group, plasma active GLP-1 level: No

## O=C(O)CC1NC(=O)C(Cc2ccccc2)NC1=O (stereo not shown) [compound 33]
Experiment 4
  Plasma active GLP-1 level (relative value to control group as 100), Average value: 90
  Significant difference (p < 0.05) vs control group, plasma active GLP-1 level: No

## O=C1NC(Cc2c[nH]cn2)C(=O)NC1Cc1ccccc1 (stereo not shown) [compound 38]
Experiment 3
  Plasma active GLP-1 level (relative value to control group as 100), Average value: 264
  Significant difference (p < 0.05) vs control group, plasma active GLP-1 level: Yes

## CC(C)CC1NC(=O)C(Cc2c[nH]c3ccccc23)NC1=O (stereo not shown) [compound 39]
Experiment 3
  Plasma active GLP-1 level (relative value to control group as 100), Average value: 229
  Significant difference (p < 0.05) vs control group, plasma active GLP-1 level: Yes

## CC(C)CC1NC(=O)C(C)NC1=O (stereo not shown) [compound 44]
Experiment 3
  Plasma active GLP-1 level (relative value to control group as 100), Average value: 255
  Significant difference (p < 0.05) vs control group, plasma active GLP-1 level: Yes

## O=C1NC(Cc2ccc(O)cc2)C(=O)NC1Cc1ccc(O)cc1 (stereo not shown) [compound 49]
Experiment 5
  Plasma active GLP-1 level (relative value to control group as 100), Average value: 100
  Significant difference (p < 0.05) vs control group, plasma active GLP-1 level: No

## CC(C)C1NC(=O)C(Cc2c[nH]c3ccccc23)NC1=O (stereo not shown) [compound 61]
Experiment 3
  Plasma active GLP-1 level (relative value to control group as 100), Average value: 117
  Significant difference (p < 0.05) vs control group, plasma active GLP-1 level: No

## CSCCC1NC(=O)C(CC(C)C)NC1=O (stereo not shown) [compound 72]
Experiment 6
  Plasma active GLP-1 level (relative value to control group as 100), Average value: 90
  Significant difference (p < 0.05) vs control group, plasma active GLP-1 level: No

## O=C1NC(Cc2c[nH]c3ccccc23)C(=O)NC1Cc1c[nH]c2ccccc12 (stereo not shown) [compound 75]
Experiment 3
  Plasma active GLP-1 level (relative value to control group as 100), Average value: 229
  Significant difference (p < 0.05) vs control group, plasma active GLP-1 level: Yes

## CC(O)C1NC(=O)C(Cc2c[nH]c3ccccc23)NC1=O (stereo not shown) [compound 79]
Experiment 6
  Plasma active GLP-1 level (relative value to control group as 100), Average value: 100
  Significant difference (p < 0.05) vs control group, plasma active GLP-1 level: No

## NC(=O)CCC1NC(=O)C(Cc2c[nH]c3ccccc23)NC1=O (stereo not shown) [compound 82]
Experiment 6
  Plasma active GLP-1 level (relative value to control group as 100), Average value: 90
  Significant difference (p < 0.05) vs control group, plasma active GLP-1 level: No

## O=C(O)CCC1NC(=O)C(Cc2ccc(O)cc2)NC1=O (stereo not shown) [compound 87]
Experiment 7
  Plasma active GLP-1 level (relative value to control group as 100), Average value: 141
  Significant difference (p < 0.05) vs control group, plasma active GLP-1 level: No

## CC(C)C1NC(=O)C(Cc2ccc(O)cc2)NC1=O (stereo not shown) [compound 88]
Experiment 7
  Plasma active GLP-1 level (relative value to control group as 100), Average value: 385
  Significant difference (p < 0.05) vs control group, plasma active GLP-1 level: Yes

## CC(O)C1NC(=O)C(Cc2ccc(O)cc2)NC1=O (stereo not shown) [compound 90]
Experiment 7
  Plasma active GLP-1 level (relative value to control group as 100), Average value: 466
  Significant difference (p < 0.05) vs control group, plasma active GLP-1 level: Yes

## O=C(O)CC1NC(=O)C(Cc2ccc(O)cc2)NC1=O (stereo not shown) [compound 91]
Experiment 7
  Plasma active GLP-1 level (relative value to control group as 100), Average value: 181
  Significant difference (p < 0.05) vs control group, plasma active GLP-1 level: No

## NC(=O)CC1NC(=O)C(Cc2ccc(O)cc2)NC1=O (stereo not shown) [compound 92]
Experiment 7
  Plasma active GLP-1 level (relative value to control group as 100), Average value: 181
  Significant difference (p < 0.05) vs control group, plasma active GLP-1 level: No

## NC(=O)CCC1NC(=O)C(Cc2ccc(O)cc2)NC1=O (stereo not shown) [compound 93]
Experiment 7
  Plasma active GLP-1 level (relative value to control group as 100), Average value: 344
  Significant difference (p < 0.05) vs control group, plasma active GLP-1 level: Yes

## CC(C)CC1NC(=O)C(Cc2c[nH]cn2)NC1=O (stereo not shown) [compound 103]
Experiment 8
  Plasma active GLP-1 level (relative value to control group as 100), Average value: 94
  Significant difference (p < 0.05) vs control group, plasma active GLP-1 level: No

## CSCCC1NC(=O)C(C)NC1=O (stereo not shown) [compound 125]
Experiment 9
  Plasma active GLP-1 level (relative value to control group as 100), Average value: 133

## CSCCC1NC(=O)CNC1=O (stereo not shown) [compound 127]
Experiment 9
  Plasma active GLP-1 level (relative value to control group as 100), Average value: 124
  Significant difference (p < 0.05) vs control group, plasma active GLP-1 level: Yes

## CCC(C)C1NC(=O)C(CO)NC1=O (stereo not shown) [compound 133]
Experiment 9
  Plasma active GLP-1 level (relative value to control group as 100), Average value: 133
  Significant difference (p < 0.05) vs control group, plasma active GLP-1 level: Yes

## CC(C)C1NC(=O)C(CC(N)=O)NC1=O (stereo not shown) [compound 141]
Experiment 10
  Plasma active GLP-1 level (relative value to control group as 100), Average value: 191
  Significant difference (p < 0.05) vs control group, plasma active GLP-1 level: Yes

## CCC(C)C1NC(=O)C(Cc2cnc[nH]2)NC1=O (stereo not shown) [compound 148]
Experiment 10
  Plasma active GLP-1 level (relative value to control group as 100), Average value: 259
  Significant difference (p < 0.05) vs control group, plasma active GLP-1 level: Yes

## CCC(C)C1NC(=O)C(CCCCN)NC1=O (stereo not shown) [compound 150]
Experiment 10
  Plasma active GLP-1 level (relative value to control group as 100), Average value: 282
  Significant difference (p < 0.05) vs control group, plasma active GLP-1 level: Yes

## CC(C)C1NC(=O)CNC1=O (stereo not shown) [compound 155]
Experiment 10
  Plasma active GLP-1 level (relative value to control group as 100), Average value: 55
  Significant difference (p < 0.05) vs control group, plasma active GLP-1 level: No

## CCC(C)C1NC(=O)C(C(C)O)NC1=O (stereo not shown) [compound 161]
Experiment 10
  Plasma active GLP-1 level (relative value to control group as 100), Average value: 282
  Significant difference (p < 0.05) vs control group, plasma active GLP-1 level: Yes

## CCC(C)C1NC(=O)C(CC(=O)O)NC1=O (stereo not shown) [compound 162]
Experiment 10
  Plasma active GLP-1 level (relative value to control group as 100), Average value: 259
  Significant difference (p < 0.05) vs control group, plasma active GLP-1 level: Yes

## CCC(C)C1NC(=O)C(CC(N)=O)NC1=O (stereo not shown) [compound 163]
Experiment 10
  Plasma active GLP-1 level (relative value to control group as 100), Average value: 327
  Significant difference (p < 0.05) vs control group, plasma active GLP-1 level: Yes

## CSCCC1NC(=O)C(C(C)O)NC1=O (stereo not shown) [compound 169]
Experiment 10
  Plasma active GLP-1 level (relative value to control group as 100), Average value: 282
  Significant difference (p < 0.05) vs control group, plasma active GLP-1 level: Yes

## O=C1NC(CS)C(=O)NC1CO (stereo not shown) [compound 180]
Experiment 10
  Plasma active GLP-1 level (relative value to control group as 100), Average value: 259
  Significant difference (p < 0.05) vs control group, plasma active GLP-1 level: Yes
